The test concerns BDF1 mice, B16 melanoma ip, median survival T/C. Put plainly: NCI In Vivo Anticancer Drug Screen. Data for tumor model B16 Melanoma (intraperitoneal) in B6D2F1 (BDF1) mice. Conditions: endpoint: median survival time, higher = longer survival. The protocol:
The antitumor activity of compounds was measured in mice bearing transplantable tumors. Survival or tumor size were measured and the results are expressed as the measurement made in the treated group (T) divided by the measurement made in the vehicle treated control group (C). The tumor model used in this assay is B16 Melanoma (intraperitoneal) in B6D2F1 (BDF1) mice

Setting [1] is: dose: 12.5 mg/kg/injection, schedule: Q01DX009 (ip), vehicle: Klucel (hydroxypropylcellulose) (HPC).
[2] abbreviates: dose: 25.0 mg/kg/injection, schedule: Q01DX009 (ip), vehicle: Klucel (hydroxypropylcellulose) (HPC).
Setting [3] is: dose: 50.0 mg/kg/injection, schedule: Q01DX009 (ip), vehicle: Klucel (hydroxypropylcellulose) (HPC).
[4] abbreviates: dose: 100.0 mg/kg/injection, schedule: Q01DX009 (ip), vehicle: Klucel (hydroxypropylcellulose) (HPC).
Where [5] appears, read: dose: 50.0 mg/kg/injection, schedule: Q01DX009 (ip), vehicle: saline with Tween-80.
The mark [6] stands for this setting: dose: 100.0 mg/kg/injection, schedule: Q01DX009 (ip), vehicle: saline with Tween-80.
Where [7] appears, read: dose: 200.0 mg/kg/injection, schedule: Q01DX009 (ip), vehicle: saline with Tween-80.
Setting [8] is: dose: 25.0 mg/kg/injection, schedule: Q01DX009 (ip), vehicle: saline.
The mark [9] stands for this setting: dose: 50.0 mg/kg/injection, schedule: Q01DX009 (ip), vehicle: saline.
Where [10] appears, read: dose: 100.0 mg/kg/injection, schedule: Q04DX003 (ip), vehicle: Klucel (hydroxypropylcellulose) (HPC).
The mark [11] stands for this setting: dose: 200.0 mg/kg/injection, schedule: Q04DX003 (ip), vehicle: Klucel (hydroxypropylcellulose) (HPC).
[12] abbreviates: dose: 3.12 mg/kg/injection, schedule: Q01DX009 (ip), vehicle: Klucel (hydroxypropylcellulose) (HPC).
The mark [13] stands for this setting: dose: 6.25 mg/kg/injection, schedule: Q01DX009 (ip), vehicle: Klucel (hydroxypropylcellulose) (HPC).

“And” between values parts separate entries of the source, which are not always exact repeats. Equal values may be shown once. Inconclusive results and toxic doses are left out. Bridge positions count the residues as written; N and C are the ends. Square brackets hold non-standard residues; d marks the D form. Peptide text beside a SMILES is read from it. I, II: the chains in the order shown. * marks the point of attachment. ξ: configuration not given here. Quinoxaline2carbonyl = O=C(c1cnc2ccccc2n1)*; NMeV = CN[CH](C(=O)O)C(C)C; ξF = NC(Cc1ccccc1)C(=O)O; NMeC = CN[CH](CS)C(=O)O; Cbz = O=C(OCc1ccccc1)*; Sar = CNCC(=O)O

Regarding `O=S1(=O)CC(Cl)(Br)C1` (tested in a mixture with another compound), the T/C was 105 % of control under setting [1]; 108 % of control under setting [2]; 108 % of control under setting [3]; 93 % of control and 108 % of control under setting [4].

As for `CN(CC(=O)NC(Cc1ccccc1)C(=O)O)C(=O)OCc1ccccc1` (stereo unspecified) (Cbz-[Sar]-[ξF]-OH), the T/C under setting [5] is 97 % of control, the T/C under setting [6] was 96 % of control and the T/C under setting [7] is 103 % of control.

For `CCOC(=O)c1c(N)sc2c1CCN(C)C2`, the T/C runs as follows: (dose: 6.25 mg/kg/injection, schedule: Q04DX003 (ip), vehicle: Klucel (hydroxypropylcellulose) (HPC)) 95 % of control; under setting [1], 100 % of control; (dose: 12.5 mg/kg/injection, schedule: Q04DX003 (ip), vehicle: Klucel (hydroxypropylcellulose) (HPC)) 102 % of control; under setting [2], 102 % of control; (dose: 25.0 mg/kg/injection, schedule: Q04DX003 (ip), vehicle: Klucel (hydroxypropylcellulose) (HPC)) 89 % of control; (dose: 35.0 mg/kg/injection, schedule: Q04DX003 (ip), vehicle: Klucel (hydroxypropylcellulose) (HPC)) 105 % of control. Besides, the T/C (dose: 55.0 mg/kg/injection, schedule: Q04DX003 (ip), vehicle: Klucel (hydroxypropylcellulose) (HPC)) is 121 % of control.

As to `O=C(C[n+]1ccc2ccccc2c1)c1ccccc1`, the T/C is, setting by setting: (dose: 12.5 mg/kg/injection, schedule: Q01DX009 (ip), vehicle: saline) 86 % of control; under setting [8], 86 % of control; under setting [9], 100 % of control.

Regarding `O=c1n[n+]([O-])ccn1C1OC(CO)C(O)C1O` (stereo unspecified), the T/C is, setting by setting: under setting [8], 92 % of control and 108 % of control; under setting [9], 102 % of control and 115 % of control; (dose: 100.0 mg/kg/injection, schedule: Q01DX009 (ip), vehicle: saline) 115 % of control and 120 % of control; (dose: 200.0 mg/kg/injection, schedule: Q01DX009 (ip), vehicle: saline) 122 % of control.

Turning to `c1cc(OCC2CO2)ccc1OCC1CO1` (stereo unspecified), the T/C runs as follows: under setting [1], 100 % of control; under setting [2], 105 % of control; under setting [3], 110 % of control; under setting [4], 120 % of control.

Consider `O=C(O)C(CSC(c1ccccc1)c1ccccc1)NC(=O)C(c1ccccc1)c1ccccc1` (stereo unspecified), for which the T/C is, setting by setting: under setting [10], 102 % of control; under setting [11], 105 % of control; (dose: 400.0 mg/kg/injection, schedule: Q04DX003 (ip), vehicle: Klucel (hydroxypropylcellulose) (HPC)) 92 % of control.

For `COC(=O)Nc1ccc(Cc2ccc(NC(=O)OC)cc2)cc1`, the T/C by setting is: (dose: 6.25 mg/kg/injection, schedule: Q01DX009 (ip), vehicle: saline with Tween-80) 107 % of control; (dose: 12.5 mg/kg/injection, schedule: Q01DX009 (ip), vehicle: saline with Tween-80) 110 % of control; (dose: 25.0 mg/kg/injection, schedule: Q01DX009 (ip), vehicle: saline with Tween-80) 112 % of control; under setting [5], 115 % of control.

Take `Cc1ccc(C(=O)[O][Hg][CH2]C2COC([CH2][Hg][O]C(=O)c3ccc(C)cc3)CO2)cc1` (stereo unspecified): the T/C (dose: 0.09 mg/kg/injection, schedule: Q01DX009 (ip), vehicle: Klucel (hydroxypropylcellulose) (HPC)) is 92 % of control; the T/C (dose: 0.19 mg/kg/injection, schedule: Q01DX009 (ip), vehicle: Klucel (hydroxypropylcellulose) (HPC)) was 87 % of control; the T/C (dose: 0.39 mg/kg/injection, schedule: Q01DX009 (ip), vehicle: Klucel (hydroxypropylcellulose) (HPC)) was 99 % of control; the T/C (dose: 0.78 mg/kg/injection, schedule: Q01DX009 (ip), vehicle: Klucel (hydroxypropylcellulose) (HPC)) is 100 % of control; the T/C (dose: 1.56 mg/kg/injection, schedule: Q01DX009 (ip), vehicle: Klucel (hydroxypropylcellulose) (HPC)) is 100 % of control; the T/C under setting [12] was 94 % of control and 106 % of control. The T/C reads like this: under setting [13], 92 % of control and 107 % of control; under setting [1], 94 % of control and 99 % of control; under setting [2], 94 % of control and 96 % of control; under setting [3], 89 % of control and 94 % of control.

On to `O=C(NCCO)Nc1ccc(Cl)c(Cl)c1`, for which the T/C is 102 % of control (dose: 90.0 mg/kg/injection, schedule: Q01DX009 (ip), vehicle: other); 100 % of control (dose: 100.0 mg/kg/injection, schedule: Q01DX009 (ip), vehicle: other); 94 % of control (dose: 200.0 mg/kg/injection, schedule: Q01DX009 (ip), vehicle: other); 87 % of control (dose: 300.0 mg/kg/injection, schedule: Q01DX009 (ip), vehicle: other); 90 % of control (dose: 400.0 mg/kg/injection, schedule: Q01DX009 (ip), vehicle: other).

With `Cc1cccc(C2CCCC2c2ccccc2)c1` (stereo unspecified), the T/C is 88 % of control (dose: 75.0 mg/kg/injection, schedule: Q01DX009 (ip), vehicle: Klucel (hydroxypropylcellulose) (HPC)); 97 % of control (dose: 150.0 mg/kg/injection, schedule: Q01DX009 (ip), vehicle: Klucel (hydroxypropylcellulose) (HPC)); 100 % of control (dose: 300.0 mg/kg/injection, schedule: Q01DX009 (ip), vehicle: Klucel (hydroxypropylcellulose) (HPC)).

For the compound `O=CNC(CSC(c1ccccc1)c1ccccc1)C(=O)O` (stereo unspecified), the T/C by setting is: (dose: 50.0 mg/kg/injection, schedule: Q04DX003 (ip), vehicle: Klucel (hydroxypropylcellulose) (HPC)) 105 % of control; under setting [10], 100 % of control; under setting [11], 94 % of control.

Consider `COc1ccc(OC)c(/C=C/c2ccnc3ccccc23)c1`, for which the T/C (dose: 50.0 mg/kg/injection, schedule: Q01DX009 (ip), vehicle: saline sonified) was 113 % of control; the T/C (dose: 100.0 mg/kg/injection, schedule: Q01DX009 (ip), vehicle: saline sonified) was 107 % of control; the T/C (dose: 200.0 mg/kg/injection, schedule: Q01DX009 (ip), vehicle: saline sonified) is 113 % of control.

For the compound `COc1cccc2c1C(=O)c1c(O)c3c(c(O)c1C2=O)CC(O)(C(C)=O)CC3OC1CC([N+](C)(C)C)C(O)C(C)O1` (stereo unspecified), the T/C is 110 % of control (dose: 1.56 mg/kg/injection, schedule: Q01DX009 (ip), vehicle: water); 107 % of control (dose: 3.13 mg/kg/injection, schedule: Q01DX009 (ip), vehicle: water); 98 % of control (dose: 6.25 mg/kg/injection, schedule: Q01DX009 (ip), vehicle: water); 110 % of control (dose: 12.5 mg/kg/injection, schedule: Q01DX009 (ip), vehicle: water); 106 % of control (dose: 25.0 mg/kg/injection, schedule: Q01DX009 (ip), vehicle: water).

Regarding `CC(NC(=O)OCc1ccccc1)C(=O)O` (stereo unspecified), the T/C under setting [12] was 97 % of control; the T/C under setting [13] is 88 % of control; the T/C under setting [1] was 94 % of control; the T/C under setting [2] is 88 % of control; the T/C under setting [10] is 88 % of control.

Consider `CC1NC(=O)C(NC(=O)c2cnc3ccccc3n2)COC(=O)C(C(C)C)N(C)C(=O)C2CSSCC(C(=O)N(C)C(C(C)C)C(=O)OCC(NC(=O)c3cnc4ccccc4n3)C(=O)NC(C)C(=O)N2C)N(C)C1=O` (stereo unspecified) (I: Quinoxaline2carbonyl-SA[NMeC][NMeV] / II: Quinoxaline2carbonyl-SA[NMeC][NMeV]; ester I:1-II:C, I:C-II:1; disulfide I:3-II:3; configuration not given here), for which the T/C reads like this: (dose: 3.0 micrograms/kg/injection, schedule: Q01DX009 (ip), vehicle: Klucel (hydroxypropylcellulose) (HPC)) 111 % of control; (dose: 6.0 micrograms/kg/injection, schedule: Q01DX009 (ip), vehicle: Klucel (hydroxypropylcellulose) (HPC)) 122 % of control; (dose: 22.5 micrograms/kg/injection, schedule: Q01DX009 (ip), vehicle: Klucel (hydroxypropylcellulose) (HPC)) 169 % of control; (dose: 24.0 micrograms/kg/injection, schedule: Q01DX009 (ip), vehicle: Klucel (hydroxypropylcellulose) (HPC)) 151 % of control; (dose: 45.0 micrograms/kg/injection, schedule: Q01DX009 (ip), vehicle: Klucel (hydroxypropylcellulose) (HPC)) 187 % of control; (dose: 48.0 micrograms/kg/injection, schedule: Q01DX009 (ip), vehicle: Klucel (hydroxypropylcellulose) (HPC)) 161 % of control. Besides, for the setting “dose: 96.0 micrograms/kg/injection, schedule: Q01DX009 (ip), vehicle: Klucel (hydroxypropylcellulose) (HPC)”, the T/C was 188 % of control.

Regarding `C=CC1CN2CCC1CC2C(O)c1ccnc2ccc(OC)cc12` (stereo unspecified) (tested in a mixture with another compound), the T/C is, setting by setting: under setting [5], 107 % of control; under setting [6], 107 % of control; under setting [7], 101 % of control.

Source of the values: PubChem BioAssay AID192 (DTP/NCI, 2004).
